Data set [1] deals with C. trachomatis. The data set can be described thus: Number, size and development of chlamydial inclusions in HeLa cells (confocal microscopy, ImageJ). Type of data set: cell-based, Chlamydia trachomatis strain D. The following applies: for Inclusion size / Number of inclusions: C. trachomatis 24 h; for Inclusion development: total infection 24 h. As to the method:
Propagation of Chlamydia and infections. Chlamydia trachomatis strain D (C. trachomatis) was propagated in HeLa cells grown in complete DMEM containing cyclohexamide (2 μg/ml). After 48 h, infected cells were harvested in sucrose-phosphate-glutamate (SPG) buffer, ruptured by vortexing with 3 mm glass beads. EBs were purified using previously described methods. The resulting bacterial pellet was resuspended in cold SPG buffer with a 21 to 22-gauge injection needle and stored in aliquots at −80° C. For infection, chlamydial EBs were added to cells in monolayer (80% confluence) at a multiplicity of infection (MOI) of 2-10 for all studies included here. Centrifugation was not used during the infection.
siRNA transfections. […] After 24 h, transfected cells were replated for a second round of transfection. After another 24 h, cells were infected with C. trachomatis and incubated for different time intervals (siRNA was maintained during the infection) according to the experimental design and were either stained for analyzing the inclusion development or prepared for Western blot analysis.
(§1) EGFR inhibitor treatment. […] The cells were pretreated with Erlotinib (25 μM) for 2 h and then infected with C. trachomatis. […] The inhibitor concentration was maintained during the infection. In certain experiments in which protein phosphorylation was investigated (FIG. 1, Panels B, D, F and G, FIG. 2, FIG. 3 and FIG. 11) the cells were serum starved overnight before drug treatment and C. trachomatis infection. […] Infected samples were used either for Western blotting or confocal imaging as described below. In another set of experiments the cells were infected with C. trachomatis followed by addition of Erlotinib at 2.5, 5 and 18 hpi. The total time for C. trachomatis infection was 24 h after which the samples were used for Western blotting or confocal imaging.
Immunofluorescence. Cells were infected with C. trachomatis as described above. The cells were washed 5 times with PBS and fixed at either 2.5 hpi or 24 hpi with 4% PFA for 10 min and blocked with 5% BSA for 1 h. After washing with TBS (50 mM Tris HCl, pH 7.4 and 150 mM NaCl) the cells were permeabilized for 15 min with 0.1% Triton X-100 and again washed with TBS followed by incubation with the indicated primary antibodies overnight. […] After repeated washings, the coverslips were mounted and analyzed using Zeiss LSM 510 or 710 laser scanning confocal microscope. For the studies shown in FIG. 1, Panel A, C. trachomatis inclusions were stained using the Pathfinder Chlamydia Culture Confirmation System (BioRad, Hercules, Calif., USA). At 24 h post C. trachomatis infection, cells were fixed with methanol for 10 min at room temperature and stained with the FITC conjugated pathfinder anti-chlamydial mAb according to the manufacturer's protocol (Bio-Rad, Hercules, Calif.). For the co-localization studies, 30,000 HeLa cells were seeded into EZ slide 4-well glass slides (Millipore, Temecula, Calif., USA) and infected with C. trachomatis as described above for 2.5 h the next day. Cells were fixed 24 h later in 4% formaldehyde in PBS for 15 min, permeabilized in 0.1% Triton X-100 for 10 min, and blocked in 1% BSA for 1 h at room temperature. […] The slides were mounted with Fluoromount mounting medium (Sigma Aldrich, St. Louis, Mo., USA), sealed, and examined using Zeiss 710 laser scanning confocal microscope.
BAPTA/AM and Ionomycin treatment. Monolayers of HeLa cells were washed with PBS and replaced with calcium free DMEM+1% FBS and pretreated for 1 h with BAPTA/AM (15 μM) followed by C. trachomatis infection for 24 h. BAPTA/AM concentration was maintained during the C. trachomatis infection. The control cells were treated with DMSO (<0.1%) followed by 24 h of C. trachomatis infection. In another set of experiments, HeLa cells were infected with C. trachomatis followed by addition of BAPTA/AM (15 μM) or DMSO at 2 or 5 hpi. The total time for C. trachomatis infection was 24 h.

For the next data set, the system named is F-actin. Nature of the data set: Organization of F-actin at the chlamydial inclusion periphery (confocal microscopy). The following applies: C. trachomatis 24 h. In kind it is cell-based, human. As to the method:
Immunofluorescence. Cells were infected with C. trachomatis as described above. The cells were washed 5 times with PBS and fixed at either 2.5 hpi or 24 hpi with 4% PFA for 10 min and blocked with 5% BSA for 1 h. After washing with TBS (50 mM Tris HCl, pH 7.4 and 150 mM NaCl) the cells were permeabilized for 15 min with 0.1% Triton X-100 and again washed with TBS followed by incubation with the indicated primary antibodies overnight. […] After repeated washings, the coverslips were mounted and analyzed using Zeiss LSM 510 or 710 laser scanning confocal microscope. For the studies shown in FIG. 1, Panel A, C. trachomatis inclusions were stained using the Pathfinder Chlamydia Culture Confirmation System (BioRad, Hercules, Calif., USA). At 24 h post C. trachomatis infection, cells were fixed with methanol for 10 min at room temperature and stained with the FITC conjugated pathfinder anti-chlamydial mAb according to the manufacturer's protocol (Bio-Rad, Hercules, Calif.). For the co-localization studies, 30,000 HeLa cells were seeded into EZ slide 4-well glass slides (Millipore, Temecula, Calif., USA) and infected with C. trachomatis as described above for 2.5 h the next day. Cells were fixed 24 h later in 4% formaldehyde in PBS for 15 min, permeabilized in 0.1% Triton X-100 for 10 min, and blocked in 1% BSA for 1 h at room temperature. […]

Another data set has as its system HeLa cells. Nature of the data set: Cell viability assay (MTT). Type of data set: cell-based, human. To be noted: 25 μM Erlotinib for 24 h.
Another data set concerns chlamydial Hsp60. Nature of the data set: Western blot analysis of chlamydial Hsp60 in infected HeLa cells. Type of data set: cell-based, Chlamydia trachomatis strain D. As to the method:
(§2) Immunoblotting. Cells were harvested and lysed in modified RIPA buffer (50 mM Tris, 150 mM NaCl, 1% sodium deoxycholate, 1% NP-40, 1 mM sodium fluoride) supplemented with protease inhibitor cocktail and phosphatase inhibitor tablet (Roche). For Western blotting of C. trachomatis antigens, the C. trachomatis-infected cells were lysed in 20 mM HEPES buffer (pH 8.0) containing 8 M urea supplemented with protease inhibitors. Cell lysates were incubated on ice for 1 h and then sonicated briefly. The soluble protein fraction was collected by centrifugation at 10,000 rpm. Total protein was estimated using the BCA method and equal amounts of proteins (10-20 μg) were processed for immunoblotting. Proteins were resolved on 10% SDS polyacrylamide gel and transferred onto a nitrocellulose membrane. The blot was blocked using 3% BSA and incubated with the indicated antibodies. ECL was used to detect the proteins according to the manufacturer's instructions.
as §1

The next data set has as its system chlamydial EBs. The data set can be described thus: Control experiment: viability of elementary bodies (EBs) treated with Erlotinib and Cetuximab (Hsp60 Western blot). Type of data set: cell-based, Chlamydia trachomatis strain D. The following applies: EBs with Erlotinib 25 μM or Cetuximab 20 μg/ml for 2.5 h, HeLa infection 24 h. The text has this: Control experiments. […] EB pellets were washed and resuspended in SPG buffer and used for subsequent HeLa cell infection. At 24 hpi cells were lysed for Western blotting of chlamydial Hsp60 antigen.

The next data set concerns intracellular calcium. The data set can be described thus: Intracellular calcium staining (fluorescence microscopy) in HeLa cells. Type of data set: cell-based, human. As to the method:
Intracellular calcium staining. Cells were washed with calcium free incomplete DMEM and incubated with 2 μM Fluo-4 AM diluted in Ca^2++ free incomplete DMEM at 37° C. for 30 min. The cells were then washed with Ca^2++ free HBSS and analyzed for calcium levels using an Olympus IX71 fluorescence microscope.
BAPTA/AM and Ionomycin treatment. Monolayers of HeLa cells were washed with PBS and replaced with calcium free DMEM+1% FBS and pretreated for 1 h with BAPTA/AM (15 μM) followed by C. trachomatis infection for 24 h. BAPTA/AM concentration was maintained during the C. trachomatis infection. The control cells were treated with DMSO (<0.1%) followed by 24 h of C. trachomatis infection. In another set of experiments, HeLa cells were infected with C. trachomatis followed by addition of BAPTA/AM (15 μM) or DMSO at 2 or 5 hpi. The total time for C. trachomatis infection was 24 h. To induce mobilization of calcium from intracellular stores to the cytoplasm, cultured cells were pretreated for 1 h with 1 μg/ml Ionomycin before chlamydial infection. C. trachomatis-infected cells were washed three times with PBS after 24 hpi and processed for immunofluorescence as described above.

In data set [2] the test system is C. trachomatis. Nature of the data set: Inside out staining: chlamydial attachment and entry into the host cell. In kind it is cell-based, Chlamydia trachomatis strain D. To be noted: HeLa cells, C. trachomatis 2.5 h.
Method: Inside out staining. Differential staining of external and internalized bacteria was performed as described previously and using three independent studies. Briefly, cells were grown overnight in 2-well Lab-Tek chamber slides and treated with either EGFR inhibitors or siRNA as described above and subsequently infected with Chlamydia for 2.5 h at 37° C. to allow for bacterial attachment and internalization. […] Infected cells were washed five times in PBS and fixed in 1% paraformaldehyde (PFA). After fixation, cells were blocked in 5% BSA for 1 h and then incubated with FITC-conjugated antibody against chlamydial EBs for 1 h to stain external EBs. Cells were then permeabilized with 0.1% Triton X-100, blocked again, and incubated with antibody against chlamydial LPS followed by incubation with rhodamine-conjugated anti-goat antibody to stain intracellular and extracellular EBs. Imaging was performed using confocal microscopy (Carl Zeiss, Germany). The quantification for the inside out experiments was performed manually based on the number of attached EBs observed per infected cell. The statistical analysis was based on imaging data collected from fifteen fields containing 3-10 cells per field as described below.
Similarly, fifteen random fields (3-10 cells per field) were used for the inside out experiments. All results are presented as mean±SEM. […]
The subject of data set [3] is C. trachomatis. Nature of the data set: Transmission electron microscopy of HeLa cells infected with C. trachomatis. Type of data set: cell-based, Chlamydia trachomatis strain D. The following applies: C. trachomatis 24 h, vs respective controls. The procedure:
Transmission electron microscopy. HeLa cells were infected with C. trachomatis as described above. […] The cells were then washed and post-fixed for 1 h in 1% osmic acid in 0.1 N Millonig's buffer followed by 1 h treatment with 1% uranyl acetate. […] Thin sections were then cut with a Reichert ultracut E microtome and stained with 1% uranyl acetate and Reynold's lead citrate solutions, followed by the analysis using 80 kV Tecnai Spirit BioTwin transmission electron microscope.

For data set [4], the system named is EGFR, PLCγ1, STAT5 and Akt. The data set can be described thus: Western blot of C. trachomatis-induced phosphorylation of EGFR and downstream effectors in HeLa cells. The following applies: 25 μM Erlotinib for 2 h followed by Ct infection for 2.5 h. In kind it is cell-based, human. As to the method: as §2
EGFR inhibitor treatment. […] The cells were pretreated with Erlotinib (25 μM) for 2 h and then infected with C. trachomatis. […] The inhibitor concentration was maintained during the infection. In certain experiments in which protein phosphorylation was investigated (FIG. 1, Panels B, D, F and G, FIG. 2, FIG. 3 and FIG. 11) the cells were serum starved overnight before drug treatment and C. trachomatis infection. […]

Where [5] appears, read: HeLa cells pre-treated with BAPTA/AM 15 μM for 1 h, calcium free DMEM.
Where [6] appears, read: HeLa cells treated before infection (Erlotinib 25 μM, Cetuximab 20 μg/ml or siRNA), vs DMSO, IgG or control siRNA.

Entries after “also recorded” stand apart in the source; their conditions may differ.

Take `CC(=O)OCOC(=O)CN(CC(=O)OCOC(C)=O)c1ccccc1OCCOc1ccccc1N(CC(=O)OCOC(C)=O)CC(=O)OCOC(C)=O` [BAPTA/AM]: in the data set on C. trachomatis [1] (setting [5]), the Inclusion size entry was “significant decrease; also recorded: significantly reduced” and the Number of inclusions entry is “significant decrease; also recorded: significantly reduced”. The Inclusion development result in the data set with C. trachomatis [1] (HeLa cells, BAPTA/AM 15 μM added at 2 or 5 hpi, vs DMSO) is “Impaired inclusion formation; also recorded: impaired inclusion development”. Further, in the data set on F-actin (HeLa cells pre-treated with BAPTA/AM for 1 h), the “Assembly of F-actin at the inclusion periphery” value was “diffused assembly of F-actin at the inclusion periphery”.

As for `C#Cc1cccc(Nc2ncnc3cc(OCCOC)c(OCCOC)cc23)c1` [Erlotinib], in the data set with HeLa cells, the “Viability of HeLa cells” value is reported as “did not reduce the viability; also recorded: did not affect the viability”. Moreover, in the data set with chlamydial Hsp60 (HeLa cells treated before infection, C. trachomatis 2.5 h), the “Chlamydial Hsp60 levels” value is “significant (P<0.001) reduction”. Also, in the data set on chlamydial Hsp60 (HeLa cells, Erlotinib 25 μM added at 2.5 hpi, total infection 24 h), the “Chlamydial Hsp60” value was “Significantly lower expression; also recorded: Significant decrease”. For the same compound, the “Chlamydial Hsp60 antigen” value in the data set with chlamydial Hsp60 (HeLa cells, Erlotinib 25 μM followed by Ct infection for 24 h) is “marked decrease”. For the same compound, the “Chlamydial Hsp60 antigen load in cells infected with drug-treated vs untreated EBs (EB viability)” value in the data set with chlamydial EBs was “comparable; also recorded: no difference”. In the data set on intracellular calcium (Erlotinib added at 2.5 and 5 hpi, stained at 24 hpi), the “Calcium signal in C. trachomatis-infected cells (Fluo-4 AM)” value is “significant drop in calcium signal; also recorded: weak calcium signal”. Besides, the “Chlamydial binding to the host cell surface (cell-associated bacteria, external+internalized)” value with C. trachomatis [2] is “Significant reduction”. The Inclusion size result in the data set on C. trachomatis [1] (setting [6]) is reported as “Significant reduction”. Further, the Number of inclusions entry in the data set on C. trachomatis [1] (setting [6]) is given as “significantly reduced”. The Inclusion development result in the data set with C. trachomatis [1] (HeLa cells, Erlotinib added at 2.5 hpi) is “impaired regular inclusion formation and resulted in formation of numerous bacterial aggregates; also recorded: incomplete inclusion development and bacterial aggregates”; in the data set on C. trachomatis [1] (HeLa cells, Erlotinib added at 5 hpi), “impaired regular inclusion formation and resulted in formation of numerous bacterial aggregates; also recorded: incomplete inclusion development and bacterial aggregates”; with C. trachomatis [1] (HeLa cells, Erlotinib added at 18 hpi), “did not significantly affect; also recorded: Well-developed C. trachomatis inclusions”. Moreover, the “Inclusion morphology by transmission electron microscopy” value in the data set with C. trachomatis [3] is “small inclusions; also recorded: smaller and less mature”. In addition, in data set [4], the “EGFR phosphorylation induced by Ct infection” value is “an increase in EGFR phosphorylation upon Ct infection in the absence of Erlotinib but not in the presence of the drug”. The “Assembly of F-actin at the inclusion periphery” value in the data set with F-actin (HeLa cells with EGFR inhibition) is reported as “altered”.

Consider `C[C@H](CCC(=O)O)C[C@H](C)C[C@H](C)C(=O)/C=C(\O)[C@H](C)C[C@H](C)C/C=C/[C@@H](C)[C@@H](O)[C@@H](C)[C@@H](O)C[C@@H]1CC[C@@](C)([C@H]2CC[C@@](C)([C@@H](C)O)O2)O1` [Ionomycin], for which the “Intracellular free calcium (Fura-2/AM)” value in the data set with intracellular calcium (Ionomycin 1 μg/ml for 1 h) is reported as “Increased intracellular free calcium”. Besides, the “Inclusion formation in EGFR siRNA treated cells with or without Ionomycin” value in the data set on C. trachomatis [1] (HeLa cells, EGFR siRNA, Ionomycin 1 μg/ml 1 h pre-treatment, Ct 24 h) is recorded as “not able to rescue; also recorded: no significant difference”.

The values are drawn from patent US10017768B2, “Method of treatment of chlamydial infections with selected EGFR inhibitors” (priority 2013, dated 2018).
